Read-outs that look alike come from different tables or passages of the source.
What was measured:
[1] = Reverse-phase thin-layer chromatographic lipophilicity (RF, RM0); type: physicochemical; conditions: for RM0: intercept of RM = RM0 + bC; for b: slope of RM = RM0 + bC
Outline: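 Reverse-phase TLC using mobile phases of methanol, acetone or dioxane with water and hydrochloric acid. Methanol varied in 10% steps; development distance 4.5 cm, ambient temperature (22±2 °C). RF measured and RM0 derived from retention.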

physchem = conditions: octadecyl-modified silica RP-18W F254s TLC plates, pH 0.5
Excerpt: The mobile phase contained an organic modifier (methanol, acetone or dioxane), water, and hydrochloric acid. The content of hydrochloric acid was kept constant at 5% v/v, while the portions of organic modifier and water varied. […] Mobile phase MeOH/H2O/HCl, 70:25:5 (vol%) was used to determine the partition coefficients, logDexp, of the tested compounds at pH 0.5 (Supplementary Materials File S3 Table S7).
Chromatographic determination of lipophilicity
Lipophilicity of synthesized compounds was evaluated under reversed-phase thin-layer
chromatographic condition using the vertical developing chamber (CAMAG, Muttenz, Switzerland)
The mobile phase contained organic modifier (methanol, acetone or dioxane), water and hydrochloric acid. The content of hydrochloric acid was kept constant at 5 %v/v
while the portion of the organic modifier and water were changed. Methanol was varied in the range
with an increment of 10%. The chamber was saturated with a mobile phase being used 15 minutes
before chromatogram development. The solvent developing distance was 4.5 cm. Detection of
All experiments were performed at ambient temperature (22±2 °C). Retention parameters were calculated as previously described [7].
The logD values of the investigated substances were determined by the interpolation procedure. […]
LogD values of the investigated substances were determined from the equation of the calibration […]

purified human BChE = target: T1, purified human BChE (Homo sapiens, UniProt P06276); assay: biochemical; type: biochemical
T1 construct: possibly also a gift of Dr Florian Nachon (the sentence is ambiguous)
Outline: (§1)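 Modified Ellman assay with acetylthiocholine and DTNB in 0.1 M sodium phosphate pH 7.4 (enzymes diluted with 0.1% BSA), ≤0.2% DMSO, 25 °C. At least three inhibitor concentrations per substrate level; Ki,app from Hunter–Downs equation, Ki from y-intercept and inhibition type from Ki,app vs [S].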

recombinant human AChE = target: T2, recombinant human AChE (Homo sapiens, UniProt P22303); assay: biochemical; type: biochemical
T2 construct: gift of Dr Florian Nachon (Armed Forces Biomedical Research Institute, Brétigny-sur-Orge, France)
Outline: as §1

[2] = Ferric reducing antioxidant power (FRAP) assay; conditions: for FRAP: mean ± standard error of three experiments;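 for FRAP: expressed as µM Fe2+ equivalents from an FeSO4·7H2O standard curve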
Outline: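 Compounds at 10 and 100 µM were mixed with FRAP reagent (300 mM acetate buffer pH 3.6, TPTZ in HCl, FeCl3, 10:1:1) and incubated 60 min at 37 °C. Fe^2+-TPTZ formation read at 593 nm against a blank. Values derived from an Fe2SO4·7H2O standard curve, three independent experiments.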

[3] = Acetone/Water/Hydrochloric acid (conc.)
[4] = Dioxane/Water/Hydrochloric acid (conc.)
[5] = Methanol/Water/Hydrochloric acid (conc.)

T1 sequence (P06276 29-602): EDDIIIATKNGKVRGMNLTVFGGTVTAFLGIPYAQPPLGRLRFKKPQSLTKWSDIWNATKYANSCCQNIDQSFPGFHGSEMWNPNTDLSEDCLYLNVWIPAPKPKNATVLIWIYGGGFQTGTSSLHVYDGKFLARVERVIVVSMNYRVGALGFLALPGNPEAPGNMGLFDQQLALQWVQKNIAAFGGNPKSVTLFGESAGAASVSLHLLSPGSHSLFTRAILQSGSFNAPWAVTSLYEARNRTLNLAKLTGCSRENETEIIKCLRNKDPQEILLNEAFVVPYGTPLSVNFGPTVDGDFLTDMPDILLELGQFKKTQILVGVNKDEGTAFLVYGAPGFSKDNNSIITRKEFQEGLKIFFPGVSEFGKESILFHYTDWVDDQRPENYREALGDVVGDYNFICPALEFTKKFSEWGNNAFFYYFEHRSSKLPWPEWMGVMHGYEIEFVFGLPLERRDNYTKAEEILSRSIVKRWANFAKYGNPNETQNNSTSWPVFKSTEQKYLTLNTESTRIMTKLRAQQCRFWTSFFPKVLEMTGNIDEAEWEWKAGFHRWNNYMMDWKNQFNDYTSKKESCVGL
T2 sequence (P22303 32-614): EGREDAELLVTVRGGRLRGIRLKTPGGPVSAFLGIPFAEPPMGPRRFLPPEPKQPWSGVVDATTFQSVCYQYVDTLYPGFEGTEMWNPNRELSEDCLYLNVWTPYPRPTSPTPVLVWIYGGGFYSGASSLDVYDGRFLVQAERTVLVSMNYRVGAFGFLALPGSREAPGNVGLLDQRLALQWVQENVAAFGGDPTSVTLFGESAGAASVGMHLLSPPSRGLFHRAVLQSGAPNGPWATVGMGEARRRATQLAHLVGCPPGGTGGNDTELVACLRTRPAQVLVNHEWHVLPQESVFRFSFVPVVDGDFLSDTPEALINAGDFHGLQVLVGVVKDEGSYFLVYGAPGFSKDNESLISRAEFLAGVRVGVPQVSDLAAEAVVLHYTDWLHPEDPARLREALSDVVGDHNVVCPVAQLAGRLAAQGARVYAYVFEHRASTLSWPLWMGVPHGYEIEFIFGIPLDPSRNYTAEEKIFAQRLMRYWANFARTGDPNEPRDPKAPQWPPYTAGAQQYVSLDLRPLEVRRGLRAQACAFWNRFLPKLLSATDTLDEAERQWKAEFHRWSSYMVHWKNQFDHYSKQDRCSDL

## Clc1ccc2c(Nc3cccc4c(NCCC56CC7CC(CC(C7)C5)C6)cccc34)ccnc2c1 [Compound 19]
[1]; [3]
  RM0: 1.657
  b: 2.289
[1]; [4]
  RM0: 1.551
  b: 2.623
[1]; [5]
  RM0: 3.685
  b: 4.54
[1]; RP-18 silica, I = 90%MeOH/5%H2O/5%HCl
  RF, Methanol/Water/Hydrochloric acid (conc.), mobile phase I: 0.67
[1]; RP-18 silica, II = 80%Dioxane/15%H2O/5%HCl
  RF, Dioxane/Water/Hydrochloric acid (conc.), mobile phase II: 0.7
[1]; RP-18 silica, II = 85%MeOH/10%H2O/5%HCl
  RF, Methanol/Water/Hydrochloric acid (conc.), mobile phase II: 0.61
[1]; RP-18 silica, III = 70%AC/25%H2O/5%HCl
  RF, Acetone/Water/Hydrochloric acid (conc.), mobile phase III: 0.49
[1]; RP-18 silica, III = 70%Dioxane/25%H2O/5%HCl
  RF, Dioxane/Water/Hydrochloric acid (conc.), mobile phase III: 0.66
[1]; RP-18 silica, III = 80%MeOH/15%H2O/5%HCl
  RF, Methanol/Water/Hydrochloric acid (conc.), mobile phase III: 0.44
[1]; RP-18 silica, IV = 60%Dioxane/35%H2O/5%HCl
  RF, Dioxane/Water/Hydrochloric acid (conc.), mobile phase IV: 0.63
[1]; RP-18 silica, IV = 65%AC/30%H2O/5%HCl
  RF, Acetone/Water/Hydrochloric acid (conc.), mobile phase IV: 0.41
[1]; RP-18 silica, IV = 75%MeOH/20%H2O/5%HCl
  RF, Methanol/Water/Hydrochloric acid (conc.), mobile phase IV: 0.35
[1]; RP-18 silica, IX = 40%AC/55%H2O/5%HCl
  RF, Acetone/Water/Hydrochloric acid (conc.), mobile phase IX: 0.15
[1]; RP-18 silica, IX = 50%MeOH/45%H2O/5%HCl
  RF, Methanol/Water/Hydrochloric acid (conc.), mobile phase IX: 0
[1]; RP-18 silica, V = 50%Dioxane/45%H2O/5%HCl
  RF, Dioxane/Water/Hydrochloric acid (conc.), mobile phase V: 0.53
[1]; RP-18 silica, V = 60%AC/35%H2O/5%HCl
  RF, Acetone/Water/Hydrochloric acid (conc.), mobile phase V: 0.3
[1]; RP-18 silica, V = 70%MeOH/25%H2O/5%HCl
  RF, Methanol/Water/Hydrochloric acid (conc.), mobile phase V: 0.3
[1]; RP-18 silica, VI = 40%Dioxane/55%H2O/5%HCl
  RF, Dioxane/Water/Hydrochloric acid (conc.), mobile phase VI: 0.13
[1]; RP-18 silica, VI = 55%AC/40%H2O/5%HCl
  RF, Acetone/Water/Hydrochloric acid (conc.), mobile phase VI: 0.28
[1]; RP-18 silica, VI = 65%MeOH/30%H2O/5%HCl
  RF, Methanol/Water/Hydrochloric acid (conc.), mobile phase VI: 0.21
[1]; RP-18 silica, VII = 50%AC/45%H2O/5%HCl
  RF, Acetone/Water/Hydrochloric acid (conc.), mobile phase VII: 0.25
[1]; RP-18 silica, VII = 60%MeOH/35%H2O/5%HCl
  RF, Methanol/Water/Hydrochloric acid (conc.), mobile phase VII: 0.1
[1]; RP-18 silica, VIII = 45%AC/50%H2O/5%HCl
  RF, Acetone/Water/Hydrochloric acid (conc.), mobile phase VIII: 0.2
[1]; RP-18 silica, VIII = 55%MeOH/40%H2O/5%HCl
  RF, Methanol/Water/Hydrochloric acid (conc.), mobile phase VIII: 0.04
physchem
  chromatographic logD: -4.12
Purified human BChE
  decrease in BChE inhibition vs compound 5: up to 275 times
Purified human BChE; logarithm of Ki in µM, BChE, dependent variable of the QSAR model, read-out: Y Measured 2 log(ki)Bche, log (Ki/µM BChE) (converted)
  Ki: 21.9 µM
Purified human BChE; ± standard error, 25 °C, ATCh substrate, read-out: Ki BChE
  Ki: 22 ± 2 µM
Recombinant human AChE; IS = Ki(BChE)/Ki(AChE), IS > 1 selective to AChE
  IS: 5.8
Recombinant human AChE; log (Ki/µM AChE), read-out: Y Measured 1 log(ki)Ache (converted)
  Ki: 3.8 µM
Recombinant human AChE; ± standard error, 25 °C, ATCh substrate, read-out: Ki AChE
  Ki: 3.8 ± 0.3 µM
[2]; 10 µM compound
  FRAP: 336 ± 12 µM
[2]; 100 µM compound
  FRAP: 2450 ± 210 µM
[2]; 10 and 100 µM
  reducing power (in words): very good reducing power comparable to that of BHT and Trolox

From article PMC9229919, “4-Aminoquinoline-Based Adamantanes as Potential Anticholinesterase Agents in Symptomatic Treatment of Alzheimer’s Disease” (Pharmaceutics, 2022)
